Data: US12729407B2, “Mucins and isoforms thereof in diseases characterized by barrier dysfunction” (priority 2020, dated 2026)
Where two headings read alike, the source gives them in different places.

Tested on: Calu3 cells infected with SARS-CoV-2
Assay type: cell-based, human
[1] = Calu3 cells, SARS-CoV-2 0.1 MOI 2 h, then drug 48 h, vs untreated infected cells

Compound	MUC1 mRNA expression	MUC4 mRNA expression	MUC5AC mRNA expression	MUC5B mRNA expression	MUC13 mRNA expression	MUC21 mRNA expression	mucin hypersecretion (mucins of the signature: MUC13, MUC21, MUC16 and MUC1) (concluding remark on the Calu3 drug screen)	MUC1 mRNA expression [1]	MUC4 mRNA expression [1]	MUC21 mRNA expression [1]
NC(=O)c1nc(F)c[nH]c1=O [favipiravir]	increase	decrease	decrease	decrease	decrease	decrease	suppress mucin hypersecretion			
Tocilizumab [toculizumab]								significantly reduce	significantly reduce	significantly reduce
